Measured values: the NIST ThermoML archive (doi:10.1016/j.jct.2009.09.003)
Several values for one entry are separate records, joined by “and”; a condition that tells them apart may be missing. Identical values can stand only once. ± gives the expanded uncertainty stated by the source.

Settings: Liquid, Transpiration

CN1CCN(C)CC1 [1,4-dimethylpiperazine]
Settings	vapor or sublimation pressure [kPa]
268.1 K	0.2307 ± 0.046
270.3 K	0.2719 ± 0.054
274.1 K	0.3511 ± 0.07
274.8 K	0.3656 ± 0.073
278.5 K	0.486 ± 0.097
280.1 K	0.5177 ± 0.1
283.6 K	0.6602 ± 0.13
286.1 K	0.7611 ± 0.15
288.5 K	0.8272 ± 0.17
291.1 K	0.9973 ± 0.2
293.6 K	1.116 ± 0.22
296.1 K	1.359 ± 0.27
298.5 K	1.561 ± 0.31
301.1 K	1.834 ± 0.37
303.4 K	2.102 ± 0.42
306.1 K	2.518 ± 0.5
308.5 K	2.6 ± 0.52
311.1 K	3.202 ± 0.64

NCCN1CCNCC1 [N-(β-aminoethyl)piperazine)]
Settings	vapor or sublimation pressure
295.7 K	0.0064 ± 0.0013 kPa
297.7 K	0.0079 ± 0.0016 kPa
300.4 K	0.0096 ± 0.0019 kPa
303.3 K	0.0127 ± 0.0026 kPa and 0.0131 ± 0.0026 kPa
304.7 K	0.0144 ± 0.0029 kPa
305.6 K	0.015 ± 0.003 kPa
308.2 K	0.0193 ± 0.0039 kPa
310.2 K	0.0227 ± 0.0046 kPa
312.6 K	0.028 ± 0.0056 kPa
314.6 K	0.0333 ± 0.0067 kPa
317.5 K	0.0414 ± 0.0083 kPa
320.7 K	0.0534 ± 0.011 kPa
323.1 K	0.0653 ± 0.013 kPa
326.4 K	0.0835 ± 0.017 kPa
328.2 K	0.0943 ± 0.019 kPa
330.5 K	0.1135 ± 0.023 kPa
330.7 K	0.1203 ± 0.024 kPa
333.1 K	0.1411 ± 0.028 kPa
333.2 K	0.134 ± 0.027 kPa
335.2 K	0.1628 ± 0.033 kPa
338.1 K	0.1943 ± 0.039 kPa

NCCNCCNCCN [1,2-ethanediamine, N,N'-bis(2-aminoethyl)-]
Settings	vapor or sublimation pressure
338.2 K	0.00866 ± 0.0017 kPa
340.7 K	0.01059 ± 0.0021 kPa
343.5 K	0.0135 ± 0.0027 kPa
346.3 K	0.01645 ± 0.0033 kPa
347.2 K	0.01792 ± 0.0036 kPa
348.2 K	0.01944 ± 0.0039 kPa
349.4 K	0.0209 ± 0.0042 kPa
350.1 K	0.022 ± 0.0044 kPa
350.2 K	0.02259 ± 0.0045 kPa
352.4 K	0.02695 ± 0.0054 kPa
353.2 K	0.02857 ± 0.0057 kPa
355.2 K	0.03317 ± 0.0066 kPa
355.4 K	0.03445 ± 0.0069 kPa
356.2 K	0.03575 ± 0.0072 kPa
358.5 K	0.04226 ± 0.0085 kPa
359.2 K	0.04519 ± 0.0091 kPa
361.2 K	0.05252 ± 0.011 kPa
363.2 K	0.05873 ± 0.012 kPa
364.2 K	0.0654 ± 0.013 kPa
365.4 K	0.06908 ± 0.014 kPa
367.4 K	0.07992 ± 0.016 kPa
368.1 K	0.08563 ± 0.017 kPa and 0.08484 ± 0.017 kPa
370.2 K	0.09747 ± 0.02 kPa
370.4 K	0.09756 ± 0.02 kPa
371 K	0.1008 ± 0.02 kPa
373.3 K	0.1176 ± 0.024 kPa

CN1CCN(CCN)CC1 [1-(2-aminoethyl)-4-methyl-piperazine]
Settings	vapor or sublimation pressure
297.8 K	0.0246 ± 0.0049 kPa
298.8 K	0.0265 ± 0.0053 kPa
302 K	0.0341 ± 0.0069 kPa
302.7 K	0.0368 ± 0.0074 kPa
304.6 K	0.0433 ± 0.0087 kPa
307.2 K	0.0548 ± 0.011 kPa and 0.0538 ± 0.011 kPa
310.5 K	0.0691 ± 0.014 kPa
311.6 K	0.0765 ± 0.015 kPa
313.2 K	0.085 ± 0.017 kPa
314.3 K	0.0925 ± 0.018 kPa
315.9 K	0.1026 ± 0.021 kPa
317.1 K	0.1153 ± 0.023 kPa
320.2 K	0.1434 ± 0.029 kPa
323.7 K	0.1872 ± 0.037 kPa
327.7 K	0.2497 ± 0.05 kPa
331.8 K	0.3218 ± 0.065 kPa
